A melting point compilation (Tetko et al.; mined from patent text by program, amines drawn as free bases though some values may be those of a salt)

melting point	Structure (SMILES)
194 °C	Cc1cc(C)c2c(c1C)C(C(=O)O)=C(Cl)C2=O
84 to 86 °C	CC(C)CN(C[C@H](O)COc1cccc2[nH]c3ccccc3c12)c1ccc(OC(C)(C)C(N)=O)cc1
170 to 173 °C	O=C(O)/C=C/C(=O)/C=C/c1ccc2c(c1)OCO2
158 °C	COc1cc(OC)nc(-n2nc(C)oc2=O)n1
147 °C	COc1ccc(C)c(NC(=O)CC23CC4CC(CC(C4)C2)C3)c1
108 to 111 °C	CSCC(=O)[C@H](Cc1ccc(O)cc1)NC(=O)[C@H](CC(C)C)NC(=O)OCc1ccccc1
118 °C	c1cnc(NC2CCN(C3CCCC3)CC2)nc1
65 to 67 °C	CS(=O)(=O)Nc1ccc(/C=C\COCCCCCCO)cc1
126 to 127 °C	Cc1cc(C)cc(C(=O)c2c(C(C)C)c(=O)[nH]c(=O)n2C/C=C/CN=[N+]=[N-])c1
86 to 87 °C	CCN1C[C@@H](C(=O)OC(C)(C)C)NC1=O
223 to 225 °C	CC(=O)CC(C)(C)Cn1c(C)nc2c(N)nc3ccccc3c21
193 to 194 °C	CN(c1cccc2cc(C3=NCC(CN4CCS(=O)CC4)S3)[nH]c12)S(=O)(=O)c1ccccn1 (stereo unspecified)
115 to 116 °C	O=C1C2CCCCC2C(=O)N1CCOC(OCCN1C(=O)C2CCCCC2C1=O)(C(=O)c1ccccc1)c1ccccc1 (stereo unspecified)
191 to 194 °C	COc1cccc(C2CNC(=O)C2c2cn3c4c(cccc24)CCC3)c1 (stereo unspecified)
175 °C	Cc1cc(COc2ccc(C(=O)NC[C@@H](C(=O)NO)N3CCN(S(C)(=O)=O)CC3)cc2)c2ccccc2n1
> 250 °C	N#Cc1cc(-c2ccncn2)c[nH]c1=O
170 to 171 °C	O=c1[nH]nc(Cc2ccc([N+](=O)[O-])cc2)o1
259 °C	C#CCOc1cccc(OC)c1-c1nc2cnncc2[nH]1
92 to 94 °C	CCCNC(=O)C(C)=Cc1ccc2[nH]ccc2c1
195 to 197 °C	CC(=O)c1c(C)[nH]c(-c2cccc(C)c2)c1N
94 °C	C=Cc1ccc(CC(=O)O)cc1
137 to 138 °C	CC(C)C1C(=O)OC(=O)N1c1ccc(Cl)cc1 (stereo unspecified)
126 °C	c1ccc(C(c2ccccc2)(c2ccccc2)N2CCCC2)cc1

melting point	Structure (SMILES)
95 to 96 °C	C=CCn1c(C)c(C)c2cnnc(OCc3ccc(C(F)(F)F)cc3)c21
176 °C	CCOC(=O)C1=C(C)NN=C(C(=O)OC)C1c1cccc([N+](=O)[O-])c1 (stereo unspecified)
148 to 151 °C	O=C1c2ccccc2-c2ccccc2C1(O)C(F)(F)F (stereo unspecified)
159 to 161 °C	COC(=O)c1nc(-c2sccc2[N+](=O)[O-])n(C)c(=O)c1OC(=O)C(C)(C)C
182 to 184 °C	CNc1cc(-c2ccc(Cl)cc2)nc2nn(C)cc12
256 to 258 °C	CC(C)(C)[Si](C)(C)OC1CN(S(C)(=O)=O)Cc2nc3c(N)nc4ccccc4c3n2C1 (stereo unspecified)
295 °C	CC(C)(C)C(=O)Nc1cc2c(O)nc[nH]c-2n1
90 °C	CC1(C)C=C(c2ccccn2)c2cc(C(F)(F)F)ccc2OC1
68 to 72 °C	CCOC(=O)c1cc(CC)cnc1CNC(C)(C(N)=O)C(C)C (stereo unspecified)
180 to 181 °C	COc1c(C(=O)O)nc(N2CCCCS2(=O)=O)n(C)c1=O
157 to 159 °C	CCc1nc(/C=C/c2cn(-c3ccccc3)nc2O)co1
179 to 180 °C	Cc1cc2c(C)c(O)c(O)c(C(=O)O)c2cc1Cc1ccccc1
164 to 165 °C	O=C(O)/C=C/c1ccc(C(=C2CCCCCC2)c2ccc(O)c(F)c2)cc1
119 °C	CCC(O)CCCOc1ccccc1Oc1ccccc1OCCCC(O)CC (stereo unspecified)
169 to 170 °C	Cc1c(Cc2cccc(C(F)(F)F)c2)oc2cccc(-c3cccc(C(=O)O)c3)c12
289 to 291 °C	C[C@@H](Nc1c(NCc2ccc(F)cc2)c(=O)c1=O)C(C)(C)C
88 to 91 °C	O=C1N(Cc2ccccc2OC(F)(F)F)c2ccccc2C12COc1cc3c(cc12)OCO3 (stereo unspecified)
64 to 66 °C	COC(=O)CCCCCCCCCCNC(=O)C(CSC(C)=O)Cc1ccccc1 (stereo unspecified)
118 to 123 °C	CCCCCCn1nc(-c2ccc(C(F)(F)F)cc2)cc1CCC(=O)c1ccc(OCC(=O)O)c(C)c1
218 to 220 °C	COc1cc(N(C)C)ccc1-c1nc2c(N[C@H]3[C@@H](C(N)=O)[C@@H]4C=C[C@H]3C4)c(Br)cnc2[nH]1
235 to 236 °C	O=c1[nH]c(-c2cc(C(F)(F)F)cc(C(F)(F)F)c2)nn1-c1cc(Cl)ccc1O
246 to 247 °C	Cc1nc2c(c3c1[nH]c1cccc(F)c13)C(=O)CC(C)(C)C2
203 to 205 °C	CN(C)CCOc1ccc2oc(-c3cc4ccccc4cn3)cc(=NO)c2c1

melting point	Structure (SMILES)
134 °C	Cc1cccc(SCn2cc(Cl)cnc2=O)c1
205 °C	Cc1c(C(=O)O)cccc1C(=O)c1ccc(Cl)cc1
199 to 200 °C	O=C(NCCCC[C@H](NC(=O)OCc1ccccc1)C(=O)Nc1ccc(-c2ccc(C(=O)O)c(=O)[nH]2)cc1)OCc1ccccc1
145 to 147 °C	O=c1[nH]nnn1-c1cc(C(F)(F)F)cc(C(F)(F)F)c1
130 to 131 °C	CC(=O)NCc1ccc2c(C#N)cn(C3CCN(CCc4ccc(F)cc4)CC3)c2c1
128 to 129 °C	CCCS(=O)(=O)NCC(O)(Cn1cncn1)c1ccc(Cl)cc1Cl (stereo unspecified)
112 to 122 °C	CCCCCCCCCCCCCCCCCCOc1ccc2c(c1)C(=O)c1ccc(OCCCCCCCCCCCCCCCCCC)cc1C2=O
102 to 103 °C	COC(=O)c1ccnc(-c2cccc3cc(Cc4cc(F)cc(Cl)c4)sc23)c1
152 to 154 °C	Cc1ccc(C(C)CC(=O)NC(C)c2ccc(NS(C)(=O)=O)c(F)c2)cc1C (stereo unspecified)
128 to 129 °C	CNC(=O)SC(C(=O)O)c1ccccc1 (stereo unspecified)
162 to 164 °C	O=C1OC(O)(Nc2ccccc2Br)C(c2ccccc2)C1c1ccccc1 (stereo unspecified)
64 to 66 °C	CCOC(=O)N(C)n1cccc1C(=O)c1ccccc1F
145 to 146 °C	O=S(=O)(c1ccccc1)N1CCNc2ncc(I)cc21
184 °C	FC(F)(F)c1nnc(-c2ccc(Cl)cc2)n1-c1ccc(Cl)cc1
140 to 141 °C	COc1c([N+](=O)[O-])ncn1C
90 to 92 °C	CC(C)(CC(=O)O)SC(CCCc1ccccc1)c1ccc(OCc2ccc3ccccc3n2)cc1 (stereo unspecified)
149 to 152 °C	O=C(Nc1ccc(N2CCCC2)cc1)N(C[C@H]1CC[C@H](CN(C(=O)Nc2ccc(N3CCCC3)cc2)C2CCCCC2)CC1)C1CCCCC1
98 to 99 °C	CCCCCCCCCCOc1ccc(C(=O)Nc2cc(CCC(=O)CC3CCCCCC3)ccc2C(C)(C)C)cc1
135 to 137 °C	O=C(NCC1CC1)c1ccnc(N2CCN(Cc3ccc(F)cc3)C2=O)c1
222 to 226 °C	CC(C)(NC(=O)C1=C(C(=O)Nc2cc(OC3CCCC3)c(Cl)cc2F)CCCC1)c1cccc(Cl)c1
175 to 177 °C	O=C(CCl)c1ccc2c(c1)Cc1cc(C(=O)CCl)ccc1S2

Structure (SMILES)	melting point
O=C(O)CN1C(=O)C(NC(=O)Nc2ccc(Cl)cc2)N=C(c2ccccc2)c2ccccc21 (stereo unspecified)	178 to 180 °C
CC(C)(Oc1ccc(CCN)cc1)C(=O)O	187 to 189 °C
O=P1(NCCCl)OCCCN1CCBr (stereo unspecified)	50 to 51 °C
Nc1nc(Cl)nc(Cl)c1[N+](=O)[O-]	161 to 162 °C
